In assay [1] the test system is asexual P. falciparum 3D7 wild-type parasites. Briefly: P. falciparum asexual growth inhibition assay (SYBR Safe DNA replication). The format is cell-based, Plasmodium falciparum. Also on record: Figure 5B dose-response source data (growth, replicate values): unit not given here. As to conditions: for Figure 5B dose-response source data (growth, replicate values): individual replicates; for IC50: 72 h, read-out: IC50, P. falciparum asexual growth inhibition. As for the experimental part: P. falciparum asexual parasite assays commenced with ring-stage parasites at 1% parasitaemia and 1% haematocrit. 200 nM chloroquine (Sigma C6628) or artesunate (Sigma A3731) was used as a no-growth control. DNA replication (indicating growth) was measured at the specified time using SYBR Safe DNA Gel Stain (Invitrogen 33102) and a fluorescence microplate reader (Smilkstein et al, [2004]; Spry et al, [2013]). […]
Growth and Viability Inhibition Assays:
Plasmodium falciparum Growth Inhibition Assays:
P. falciparum parasites were maintained under routine culture conditions in red blood cells and RPMI 1640-Hepes with Glutamax, supplemented with 10 mM D-glucose, 480 μM hypoxanthine, 20 μg/mL gentamicin, 0.375% (w/v) AlbuMAXTM II (Thermo Fisher 11021029), and 2.5% v/v heat-inactivated human serum (17). Cultures were maintained at 37 °C […]
wildtype parasites except for the ring stage survival assay, as specified. Cultures were synchronised with 5% w/v D-sorbitol (18).
Growth inhibition was investigated according to methods described by Smilkstein et al. (19) with modifications by Spry et al. (20). Compounds or solvent controls (DMSO, ethanol, or ethyl acetate) were serially diluted 2-fold across flat-bottom 96-well plates. Culture media without compound was used as a negative control. 200 nM chloroquine (Sigma C6628) or artesunate (Sigma A3731) was used as a positive control to determine background fluorescence. The parasitaemia of a culture containing predominantly ring stage parasites was counted by Giemsa smear. The parasitaemia was adjusted to 1% by addition of fresh uRBCs and added to the plate at a final haematocrit of 1%, with 200 µL per well. The plates were incubated at 37 °C under humid microaerophilic conditions. After 24, 48, or 72 hours, the plates were transferred to a -18 °C freezer to stop the assay and lyse cells. Plates were thawed and lysate was mixed 1:1 with SYBR Safe DNA Gel Stain (Invitrogen 33102) (final concentration 1/10,000) diluted in lysis buffer (20 mM TRIS, 5 mM EDTA, 0.008% w/v Saponin, 0.08% w/v Triton-X 100, pH 7.5). Fluorescence was detected at 490 nm excitation/ 520 nm emission on a FLUOstar Optima fluorescence plate reader (BMG Labtech).

Assay [2] deals with human embryonic kidney cells (HEK293). Nature of the assay: Human embryonic kidney cell viability assay (MTT). The format is cell-based. As to conditions: for Dose-response data points (Figure 5C): replicate data points; for IC50: Homo sapiens, 96 h, HEK293, read-out: IC50, human embryonic kidney cell inhibition (viability). As for the experimental part: HEK293 cell viability assays commenced with 5000 cells per well. 10 µg/mL cycloheximide was used as a no-growth control. Metabolic capacity (indicating viability) was measured in an absorbance microplate reader after incubation with 0.45 mg/mL methylthiazolyldiphenyl-tetrazolium bromide (MTT; Sigma M2128) for 2 h followed by crystal solubilisation in SDS. […]
Human Embryonic Kidney Cell Viability Assays:
Human Embryonic Kidney Cell (HEK293) culture:
The HEK293 cell line was maintained under routine culture conditions in DMEM containing 3.7 g/L NaHCO3 supplemented with 10% FBS, 200 μM glutamine, 100 units/mL penicillin, and 100 μg/mL streptomycin at 37 °C in a humidified 5% CO2 incubator.
Cells were detached from a flask using 0.25% Trypsin with 0.2 g/L EDTA (Sigma T4049) and washed with culture media containing no phenol red. Cells were incubated with a serial dilution of each compound, or media/DMSO alone. The protein synthesis inhibitor cycloheximide (Sigma 01810) at 10 µg/mL was used as a positive control to determine background absorbance. 5,000 cells were seeded in each well. After 96 hours, 0.45 mg/mL methylthiazolyldiphenyl-tetrazolium bromide (MTT; Sigma M2128) was added and incubated for a further two hours, before mixing 1.1:1 with 10% w/v sodium dodecyl sulfate (SDS) to solubilise crystals and freezing the plate at -18 °C to stop the assay. […]

Where [3] appears, read: Plasmodium falciparum, 3D7, 72 h.

Where “and” joins values, the source holds several entries; their conditions need not be identical. Equal values may be shown once. Read-outs that look alike come from different tables or passages of the source.

`CC(C)(C)OOCCO[C@H]1CC[C@H]2[C@@H]3CC=C4C[C@@H](O)CC[C@]4(C)[C@H]3CC[C@]12C` [BC86D]: the “Figure 5B dose-response source data (growth, replicate values)” value (“Figure 5B dose-response source data” for short) in assay [1] (Concentration 0.019532 uM) is 105.3 and 96.53 and 86.36 and 94.74 and 88.38 and 91.4; in assay [1] (Concentration 0.039063 uM), 101.2 and 93.9 and 88.17 and 67.71 and 70.53 and 73.82 and 95.83 and 90.15 and 93.44; in assay [1] (Concentration 0.078125 uM), 97.22 and 94.27 and 90.34 and 67.69 and 67.82 and 69.83 and 95.38 and 88.24 and 94.29; in assay [1] (Concentration 0.15625 uM), 96.36 and 93.34 and 87.86 and 61.44 and 62.01 and 63.2 and 95.83 and 94.74 and 95.36; in assay [1] (Concentration 0.3125 uM), 73 and 78.58 and 67.15 and 39.54 and 44.2 and 46.55 and 91.73 and 92.12 and 93.7; in assay [1] (Concentration 0.625 uM), 35.28 and 38.38 and 34.74 and 19.93 and 23.01 and 29.36 and 61.25 and 65.6 and 67.6. For the same molecule, the “Figure 5B dose-response source data” value in assay [1] (Concentration 1.25 uM) was 21.76 and 22.71 and 19.11 and 8.627 and 13.04 and 18.09 and 18.17 and 19.23 and 20.29; in assay [1] (Concentration 2.5 uM), 14.75 and 15.93 and 13.24 and 1.608 and 6.601 and 8.38 and 7.495 and 10.61 and 8.324; in assay [1] (Concentration 5 uM) it was 10.45 and 16.02 and 6.128 and -6.852 and -3.181 and -0.1793 and 5.173 and 6.43 and 3.972; in assay [1] (Concentration 10 uM) it was 4.733 and -2.356 and 1.324 and -0.2487 and 0.35 and -1.359 and 1.305 and 0.4257 and 0.3494; in assay [1] (Concentration 12.5 uM), 2.181 and -0.01995 and -1.157; in assay [1] (Concentration 25 uM), 4.45 and 0.3217 and -1.979. Moreover, the “Dose-response data points (Figure 5C)” value in assay [2] (3.125000 μM) is 115.5 and 95.86 and 88.3 and 98.59 and 112 and 99.93 and 104.6 and 105.3 and 96.8 and 121.6 and 126.6 and 132.2; in assay [2] (6.250000 μM), 96.33 and 95.87 and 97.03 and 100.5 and 103.4 and 96.23 and 94.82 and 98.4 and 99.62 and 111.9 and 133.1 and 110.9; in assay [2] (12.500000 μM), 82.46 and 90.77 and 77.92 and 80.03 and 95.9 and 97.58 and 94.64 and 94.52 and 89.57 and 87.62 and 85.62 and 86.13; in assay [2] (25.000000 μM), 69.58 and 78.66 and 69.32 and 83.79 and 87.18 and 91.53 and 75.15 and 72.67 and 65.58 and 76.71 and 79.77 and 75.18; in assay [2] (50.000000 μM) it was 3.07 and 5.347 and 9.422 and 2.15 and 5.359 and 78.86 and -3.535 and -3.352 and -3.7 and -3.023 and -3.058 and -2.513; in assay [2] (100.000000 μM) it was -1.036 and -1.804 and -2.143 and -2.292 and -2.356 and -1.995 and -3.811 and -3.706 and -3.888 and -2.988 and -3.04 and -3.163.
Turning to `CC(C)(C)OOCCO[C@H]1CC[C@H]2[C@@H]3CC=C4C[C@@H](O)CC[C@]4(C)[C@H]3CC[C@]12C` [C-17-perox], the IC50 (usually the concentration at which inhibition is half-maximal) in assay [1] amounted to 0.5 µM; in assay [1] (setting [3]) it was 0.48 µM; in assay [2] it was 31.3 µM. Moreover, the “Fold difference in IC50 HEK293 compared to P. falciparum” value in assay [2] (96 h HEK293 vs 72 h P. falciparum) is given as ~ 60 fold.
For `C[C@]12CC[C@H](O)CC1=CC[C@@H]1[C@@H]2CC[C@]2(C)C(=O)CC[C@@H]12` [DHEA, Dehydroepiandrosterone], the “Figure 5B dose-response source data” value in assay [1] (Concentration 1.5625 uM) is 105 and 100.9 and 101.2 (2×) and 104.8 and 107.1 and 104 and 104.2 and 97.24; in assay [1] (Concentration 3.125 uM), 99.54 and 98.59 and 99.35 and 103.6 and 96.02 and 105.9 and 103.9 and 101.1 and 100.2; in assay [1] (Concentration 6.25 uM), 94.64 and 99.33 and 101.7 and 100.2 (2×) and 103.5 and 102.7 and 100.1 and 101.2; in assay [1] (Concentration 12.5 uM) it was 97.83 and 97.77 and 98.63 and 101.4 and 104.7 and 102.2 and 102.3 and 100.6 and 97.67; in assay [1] (Concentration 25 uM) it was 97.33 and 98.84 and 99.51 and 104.1 and 102.5 and 109.8 and 97.3 and 98.4 and 101.2; in assay [1] (Concentration 50 uM) it was 91.17 and 88.79 and 89.21 and 91.36 and 96.36 and 97.35 and 94.23 and 92.68 and 93.65. Further, the “Figure 5B dose-response source data” value in assay [1] (Concentration 100 uM) is 80.03 and 78.97 and 77.22 and 68.91 and 88.77 and 89.83 and 76.17 and 73.25 and 71.62; in assay [1] (Concentration 200 uM), 36.08 and 37.08 and 31 and 29.85 and 51.4 and 44.23 and 15.92 and 13.39 and 11.5; in assay [1] (Concentration 400 uM) it was 0.02245 and -0.2944 and -1.594 and 1.899 and 4.652 and 1.525 and -5.885 and -7.232 and -8.092. Also, the half-maximal inhibitory concentration (IC50) stood at 150 µM in assay [1] (setting [3]) and 88.5 µM in assay [2]. For the same molecule, the “Dose-response data points (Figure 5C)” value in assay [2] (3.125000 μM) was 108.5 and 113.8 and 102.3 and 90.3 and 90.17 and 89.76; in assay [2] (6.250000 μM), 115 and 79.4 and 102.8 and 86.08 and 90.81 and 85.1; in assay [2] (12.500000 μM), 83.96 and 112.7 and 100.9 and 95.11 and 92.95 and 84.24 and 113.9 and 109.3 and 94.8 and 88.3 and 83.73 and 81.43; in assay [2] (25.000000 μM), 74.02 and 110.4 and 109.9 and 89.17 and 79.81 and 87.49 and 124 and 119.6 and 106.3 and 78.12 and 83.41 and 71.52; in assay [2] (50.000000 μM), 65.27 and 101.5 and 98.29 and 73.76 and 69.18 and 75.02 and 111.3 and 62.75 and 93.36 and 87.06 and 86.25 and 84.64; in assay [2] (100.000000 μM), 28.83 and 48.06 and 53.97 and 38.87 and 26.11 and 38.89 and 29.34 and 31.58 and 34.33 and 61 and 65.6 and 64. The “Dose-response data points (Figure 5C)” value in assay [2] (200.000000 μM) is -0.4301 and 3.655 and 7.381 and -0.1582 and -0.5868 and -0.7801 and -3.647 and -3.757 and -3.702 and -0.3542 and 0.648 and 0.1847; in assay [2] (400.000000 μM), -1.929 and -2.654 and -2.355 and -0.05272 and -1.637 and -1.302 and -3.718 and -4.096 and -4.009 and -3.542 and -3.411 and -3.648.

For the origin of these results see publication PMC11251039, “Harnessing cholesterol uptake of malaria parasites for therapeutic applications” (EMBO Molecular Medicine, 2024).
